# Results from ChEMBL document CHEMBL1201862, “PubChem BioAssay data set” (2004).
#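 Following 48 hours of exposure in 96-well plates, responses at five concentrations were used to interpolate endpoints linearly. GI50 = concentration required for 50% inhibition of growth.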 Active and inactive are the calls of the source. Cut-off read from the data, not from the text of the source: active = GI50 up to about 1.1 µM and inactive = higher.
# Legend:
# Test in all cases: NCI anticancer screen, dose series, 48 h
# [1] = tested on: TK-10
# [2] = tested on: K562
# [3] = tested on: DU-145
# [4] = tested on: CAKI-1
# [5] = tested on: SF-268
# [6] = tested on: KM12
# [7] = tested on: MDA-MB-435
# [8] = tested on: MDA-MB-231
# [9] = tested on: NCI-H522
# [10] = tested on: PC-3
# [11] = tested on: OVCAR-3
# [12] = tested on: OVCAR-5
# [13] = tested on: SNB-19
# [14] = tested on: NCI-H226
# [15] = tested on: RPMI-8226
# [16] = tested on: 786-0
# [17] = tested on: IGROV-1
# [18] = tested on: NCI-H460
# [19] = tested on: XF498
# [20] = tested on: DMS-273
Compound,GI50 [1],GI50 [2],GI50 [3],GI50 [4],GI50 [5],GI50 [6],GI50 [7],GI50 [8],GI50 [9],GI50 [10],GI50 [11],GI50 [12],GI50 [13],GI50 [14],GI50 [15],GI50 [16],GI50 [17],GI50 [18],GI50 [19],GI50 [20]
CN(Cc1cccc2ccccc12)Cc1cccc2ccccc12,> 100 µM (inactive),35.1 µM (inactive),54 µM (inactive),50.1 µM (inactive),41.6 µM (inactive),41.5 µM (inactive),35.7 µM (inactive),21.8 µM (inactive),19 µM (inactive),24 µM (inactive),44.4 µM (inactive),43 µM (inactive),52.7 µM (inactive),30.9 µM (inactive),22.6 µM (inactive),37.8 µM (inactive),32.2 µM (inactive),40.6 µM (inactive),,
CN(C)CCCNC(=O)c1cn2c(ccc3sc4ccccc4c(=O)c32)n1,16.5 µM (inactive),1.79 µM (inactive),12.3 µM (inactive),3.28 µM (inactive),3.82 µM (inactive),12 µM (inactive),13.6 µM (inactive),1.31 µM (inactive),12.4 µM (inactive),4.8 µM (inactive),10.7 µM (inactive),10.6 µM (inactive),15.1 µM (inactive),17.3 µM (inactive),1.73 µM (inactive),3.06 µM (inactive),10.6 µM (inactive),1.13 µM (inactive),,
CCOc1ccc(NC(=O)CC2SC(N)=NC2=O)cc1 (centres undefined),> 100 µM (inactive),,,,> 100 µM (inactive),> 100 µM (inactive),,,,,> 100 µM (inactive),> 100 µM (inactive),> 100 µM (inactive),> 100 µM (inactive),> 100 µM (inactive),> 100 µM (inactive),> 100 µM (inactive),> 100 µM (inactive),> 100 µM (inactive),
C[N+](C)(C)C.FC(F)(F)C1(C(F)(F)F)O[SiH-]2(OC(C(F)(F)F)(C(F)(F)F)c3ccccc32)c2ccccc21,16.9 µM (inactive),5.87 µM (inactive),,26.4 µM (inactive),,19.9 µM (inactive),,,22.1 µM (inactive),,18.9 µM (inactive),13.2 µM (inactive),7.18 µM (inactive),4.86 µM (inactive),16.4 µM (inactive),16.7 µM (inactive),,8.97 µM (inactive),,20.1 µM (inactive)
CCNC(C)Cc1ccccc1 (centres undefined),> 100 µM (inactive),> 100 µM (inactive),,> 100 µM (inactive),> 100 µM (inactive),> 100 µM (inactive),,,> 100 µM (inactive),,> 100 µM (inactive),> 100 µM (inactive),> 100 µM (inactive),> 100 µM (inactive),> 100 µM (inactive),> 100 µM (inactive),> 100 µM (inactive),> 100 µM (inactive),,> 100 µM (inactive)
COC(=O)c1nc(N)nc(C(=O)OC)c1C(=O)c1ccccc1,> 100 µM (inactive),> 100 µM (inactive),,,> 100 µM (inactive),> 100 µM (inactive),,,> 100 µM (inactive),,> 100 µM (inactive),> 100 µM (inactive),> 100 µM (inactive),,> 100 µM (inactive),> 100 µM (inactive),> 100 µM (inactive),> 100 µM (inactive),> 100 µM (inactive),
CC(=O)OC12c3ccccc3C1CCCC21OCCCO1 (centres undefined),> 100 µM (inactive),> 100 µM (inactive),,> 100 µM (inactive),> 100 µM (inactive),> 100 µM (inactive),,,> 100 µM (inactive),,> 100 µM (inactive),> 100 µM (inactive),> 100 µM (inactive),> 100 µM (inactive),> 100 µM (inactive),> 100 µM (inactive),> 100 µM (inactive),> 100 µM (inactive),,> 100 µM (inactive)
CCCCN1C(=O)CS/C1=N/Nc1nc2c([nH]1)c(=O)n(C)c(=O)n2C,> 100 µM (inactive),30.5 µM (inactive),19.2 µM (inactive),> 100 µM (inactive),7.74 µM (inactive),6.35 µM (inactive),14.7 µM (inactive),29 µM (inactive),61.7 µM (inactive),> 100 µM (inactive),64.1 µM (inactive),14.5 µM (inactive),37.8 µM (inactive),> 100 µM (inactive),42.4 µM (inactive),17.3 µM (inactive),> 100 µM (inactive),13.7 µM (inactive),,
CC1=C2O[B-](c3ccccc3)(c3ccccc3)[O+]=C2C=CN1,22.6 µM (inactive),40.4 µM (inactive),,21.8 µM (inactive),,,,,,,2 µM (inactive),,37.3 µM (inactive),,28.3 µM (inactive),46.2 µM (inactive),61.7 µM (inactive),49.9 µM (inactive),12.5 µM (inactive),45.9 µM (inactive)
CN(Cc1ccccc1)C(=NC#N)N(C)Cc1ccccc1,> 100 µM (inactive),,,> 100 µM (inactive),> 100 µM (inactive),> 100 µM (inactive),,,> 100 µM (inactive),,> 100 µM (inactive),,> 100 µM (inactive),,,> 100 µM (inactive),> 100 µM (inactive),> 100 µM (inactive),,> 100 µM (inactive)
COC(=O)C1=C(O)C(C(=O)OC)C2CC(=O)CC1C2(C)C (centres undefined),> 100 µM (inactive),> 100 µM (inactive),> 100 µM (inactive),> 100 µM (inactive),> 100 µM (inactive),> 100 µM (inactive),> 100 µM (inactive),> 100 µM (inactive),> 100 µM (inactive),> 100 µM (inactive),> 100 µM (inactive),> 100 µM (inactive),> 100 µM (inactive),> 100 µM (inactive),> 100 µM (inactive),> 100 µM (inactive),> 100 µM (inactive),> 100 µM (inactive),,
ClCCCN(CCCCl)c1ccc(/C=N/c2cccc(Cl)c2)cc1,4.48 µM (inactive),11.8 µM (inactive),2.56 µM (inactive),0.652 µM (active),21.7 µM (inactive),20.5 µM (inactive),28.8 µM (inactive),12.2 µM (inactive),30.5 µM (inactive),10.7 µM (inactive),19.1 µM (inactive),22.1 µM (inactive),30.1 µM (inactive),2.03 µM (inactive),17.2 µM (inactive),18.3 µM (inactive),29.8 µM (inactive),9.55 µM (inactive),,
O=C(Nc1c(Cl)cc([N+](=O)[O-])cc1Cl)C(=O)C(C1OC(=O)c2ccccc21)[N+](=O)[O-] (centres undefined),> 100 µM (inactive),> 100 µM (inactive),,> 100 µM (inactive),> 100 µM (inactive),> 100 µM (inactive),,,,,> 100 µM (inactive),> 100 µM (inactive),> 100 µM (inactive),> 100 µM (inactive),89.9 µM (inactive),> 100 µM (inactive),> 100 µM (inactive),> 100 µM (inactive),> 100 µM (inactive),
CC1=NOC(=O)C1/N=N/c1ccc(Br)c(C)c1 (centres undefined),18.6 µM (inactive),13 µM (inactive),,16.1 µM (inactive),22.1 µM (inactive),26.1 µM (inactive),,,,,17.2 µM (inactive),24.9 µM (inactive),31.2 µM (inactive),25.5 µM (inactive),15.9 µM (inactive),20 µM (inactive),19.2 µM (inactive),23.9 µM (inactive),17.6 µM (inactive),20.2 µM (inactive)
NC12CC3CC(C1)CC(Cl)(C3)C2,> 100 µM (inactive),> 100 µM (inactive),,,,> 100 µM (inactive),,,> 100 µM (inactive),,> 100 µM (inactive),> 100 µM (inactive),,,> 100 µM (inactive),> 100 µM (inactive),> 100 µM (inactive),> 100 µM (inactive),> 100 µM (inactive),> 100 µM (inactive)
Cc1noc(/N=C2\C=C(Nc3onc(C)c3C)C(=O)c3ccccc32)c1C,> 100 µM (inactive),8.81 µM (inactive),,> 100 µM (inactive),86.3 µM (inactive),> 100 µM (inactive),,,,,2.88 µM (inactive),> 100 µM (inactive),> 100 µM (inactive),> 100 µM (inactive),25.1 µM (inactive),> 100 µM (inactive),> 100 µM (inactive),> 100 µM (inactive),> 100 µM (inactive),> 100 µM (inactive)
C=C1C(=O)C23C(O)CC4C5(C)CCCC4(C(O)OC5)C2C(OC(C)=O)CC1C3O (centres undefined),10.9 µM (inactive),2.58 µM (inactive),,4.95 µM (inactive),13.3 µM (inactive),9.02 µM (inactive),,,1.58 µM (inactive),,13.2 µM (inactive),18 µM (inactive),14.7 µM (inactive),19.5 µM (inactive),3.64 µM (inactive),6.31 µM (inactive),19.4 µM (inactive),4.97 µM (inactive),,17.9 µM (inactive)
O=S(=O)(O)c1cc(/N=[N+](\[O-])c2cc(S(=O)(=O)O)c3ccccc3c2)cc2ccccc12,> 100 µM (inactive),30.7 µM (inactive),19.5 µM (inactive),23.1 µM (inactive),> 100 µM (inactive),> 100 µM (inactive),> 100 µM (inactive),> 100 µM (inactive),26.2 µM (inactive),> 100 µM (inactive),12.4 µM (inactive),32.5 µM (inactive),46.7 µM (inactive),> 100 µM (inactive),28.1 µM (inactive),> 100 µM (inactive),33.9 µM (inactive),> 100 µM (inactive),,
